Data on six compounds can be found in patent publication US20250002967A1, “METHODS FOR DETECTING MICROORGANISMS BY ADDING A FLUORESCENT DYE DIRECTLY TO THE SOLID GROWTH MEDIUM” (DIAMIDEX, priority 2021, published 2025).

The test system of test [1] is Aspergillus brasiliensis ATCC® 16404™. Kind of test: Enumeration of colonies using the method of the invention. It is filed as cell-based. The settings on record: A. brasiliensis; SDA agar; 35° C.; microcolony count.
Test [2] relates to Candida albicans ATCC® 10231™. The description is as above. In kind it is cell-based. The settings on record: C. albicans; SDA agar; 35° C.; microcolony count.
Test [3] concerns Escherichia coli ATCC® 8739™. The description is as above. As to conditions: E. coli; TSA agar; 35° C.; microcolony count. It is filed as cell-based.
The next test relates to E. faecalis ATCC® 19433™. Kind of test: Enumeration of bacteria implicated in uncomplicated and complicated UTI. In kind it is cell-based, Enterococcus faecalis. The settings on record: black MCE membrane.
Test [4] relates to P. mirabilis ATCC® 29906™. The description is as above. In kind it is cell-based, Proteus mirabilis. The settings on record: black MCE membrane.
The test system of a further test is E. coli ATCC®8739™. Described as above. In kind it is cell-based, Escherichia coli. As to conditions: black MCE membrane; for Time detection (minimal timing necessary to enumerate microcolonies): 37° C.
Test [5] has as its system K. pneumoniae ATCC® 13883™. The description is as above. In kind it is cell-based, Klebsiella pneumoniae. As to conditions: black MCE membrane; for Time detection (minimal timing necessary to enumerate microcolonies): 37° C.
The subject of another test is S. aureus ATCC® 6538™. The description is as above. In kind it is cell-based, Staphylococcus aureus. The settings on record: black MCE membrane.

As for `CCC(=O)c1ccc2cc(N(C)C)ccc2c1` [Prodan, 6-propionyl-2-dimethyaminonaphthalene], the entries for the “Counting Scan at 17 h on PVDF membrane with fluorochrome” value (“Counting Scan at 17 h on PVDF membrane” for short) in test [1], in test [2] and in test [3] were 6, 17 and 126, respectively. The figures for the “Counting Scan at 17 h on MCE membrane with fluorochrome” value (“Counting Scan at 17 h on MCE membrane” for short) in test [2] and in test [3] were 11 and 118, respectively.

On to `N=C(N)c1ccc(-c2cc3ccc(C(=N)N)cc3[nH]2)cc1` [DAPI, 4′,6-diamidino-2-phenylindole], for which the “percentage of detected objects compared to standard procedure timing (24 h at 37° C.)” value is reported as “(100%)” in the test with E. faecalis ATCC® 19433™ (Columbia Blood); “(100%)” in the test on E. faecalis ATCC® 19433™ (TSA); “(94%)” in test [4] (Columbia Blood); “(98%)” in test [4] (TSA); “(100%)” in the test on E. coli ATCC®8739™ (Columbia Blood); “(98%)” in the test with E. coli ATCC®8739™ (MacConkey). Also, the “percentage of detected objects compared to standard procedure timing (24 h at 37° C.)” value in the test on E. coli ATCC®8739™ (TSA) was “(100%)”; in test [5] (K. pneumonia, Columbia Blood), “(100%)”; in test [5] (K. pneumonia, TSA), “(100%)”; in test [5] (K. pneumoniae, MacConkey) it was “(100%)”; in the test with S. aureus ATCC® 6538™ (Columbia Blood), “(100%)”; in the test with S. aureus ATCC® 6538™ (TSA), “(100%)”. Moreover, the “Time detection (minimal timing necessary to enumerate microcolonies)” value in the test with E. faecalis ATCC® 19433™ (TSA, 37° C.) was 7 h; in test [4] (TSA, 37° C.), 10 h; in the test on E. coli ATCC®8739™ (MacConkey) it was 10 h; in the test on E. coli ATCC®8739™ (TSA), 6 h; in test [5] (K. pneumonia, Columbia Blood) it was 10 h; in test [5] (K. pneumonia, TSA) it was 10 h. Further, the “Time detection (minimal timing necessary to enumerate microcolonies)” value in test [5] (K. pneumoniae, MacConkey) is listed as 11 h; in the test on S. aureus ATCC® 6538™ (TSA, 37° C.), 8 h.

Regarding `Cc1c(CC(=O)ON2C(=O)CCC2=O)c(=O)oc2cc(N)c(S(=O)(=O)O)cc12` [AF350-NHS Ester, 7-amino-3-[2-(2,5-dioxopyrrolidin-1-yl)oxy-2-oxoethyl]-4-methyl-2-oxochromene-6-sulfonic acid], the “Counting Scan at 17 h on MCE membrane” value came to 25 in test [1], 9 in test [2] and 109 in test [3]. Besides, the “Counting Scan at 17 h on PVDF membrane” value was determined as 19 in test [1], 20 in test [2] and 107 in test [3].

For `CN(C)CCNc1ccc(O)c2c1C(=O)c1c(O)ccc(NCCN(C)C)c1C2=O` [DRAQ5, 1,5-bis (2-(di-methylamino)ethylamino)-4,8-dihydroxyanthracene-9,10-dione], in test [3], the “Counting Scan at 17 h on MCE membrane” value is 185 and the “Counting Scan at 17 h on PVDF membrane” value stood at 162.

`Cc1ccc2n1[B-](F)(F)[N+]1=C(CCCCCCCCCCCC(=O)O)C=CC1=C2` [BODIPY 500/510, 12-(2,2-difluoro-12-methyl-1-aza-3-azonia-2-boranuidatricyclo[7.3.0.03,7]dodeca-3,5,7,9,11-pentaen-4-yl)dodecanoic acid]: the “Counting Scan at 17 h on PVDF membrane” value in test [3] was 112.

On to `CC[N+]1=C(C=CC=CC=C2N(CCCCCC(=O)O)c3ccc(S(=O)(=O)O)cc3C2(C)C)C(C)(C)c2cc(S(=O)(=O)[O-])ccc21` [Sulfo-Cy5-Acid], for which the “Counting Scan at 17 h on MCE membrane” value came to 25 in test [1], 13 in test [2] and 114 in test [3]. The entries for the “Counting Scan at 17 h on PVDF membrane” value in test [1], in test [2] and in test [3] were 34, 13 and 120, respectively.
